Ends that are not written are not given here.

One data set deals with 3T3 cell line. The experiment in a line: Transfection of GFP plasmid DNA by crotamine peptide fragments. It is filed as cell-based, mouse. Conditions: for treatment time giving the best result: 24 and 48 hours tested. How it is done: 3T3 cells (spontaneously immortalized primary mouse fibroblasts) or COS-7 (cells derived from kidney of African green monkey) were plated (1.5×10^5) in 6-wells plate (dimension of 6×35 mm), containing DMEM culture medium with 10% fetal bovine serum (FBS) and […] L-glutamine, with no antibiotics, 1 or 2 days before the transfection until reaching 60% to 80% confluence of the plate. Transfection was performed in DMEM medium ([…]) with 2% FBS and 80 or 100 μM chloroquine. Aggregates (crotamine plus 2 μg DNA in 0.2 ml HBM) were added in each well, on the cells in culture. After five hours of incubation at 37° C., under humid atmosphere and 5% CO2, the medium was substituted with another one containing 10% FBS. In the control culture wells, DNA was added in the same concentration and they were processed in the same way of experimental samples. After 24 and 48 hours, cells were washed with PBSA and fixed with 3.7% formaldehyde. The transfection medium was substituted with DMEM medium, containing 10% FBS, and the transgenic expression was then evaluated 24 to 48 hours after the transfection. The efficiency of transfection as determined by DNA-peptide aggregates was compared with that obtained by using lipofectamine, following routine protocol.
Two peptides were synthesized based on crotamine sequence, e.g. two sequences corresponding to fragments of crotamine, i.e. Crot2-18 ([…] (SEQ ID NO: 3)), herewithin designated as peptide 1, and Crot27-39 ([…] (SEQ ID NO: 4)), herewithin designated as peptide 2. The ability and efficiency of these two peptides to transfect cells in vitro and in vivo were analysed. The same protocol which was used for natural crotamine, as described in Example 9 was followed: Peptides were mixed with the plasmid DNA containing the gene coding for GFP (green fluorescent protein). After forming the complex with DNA, peptides were put on Petri dishes containing 3T3 cell line and left in the CO2 oven for 24 and 48 hours. Subsequently, cells were fixed and the result of transfection was analysed by confocal microscopy. As controls, the same cells were transfected by using Lipofectamin, as well as the crotamine molecule with 42 amino acid residues.

The subject of another data set is mice. In words: Paralysis of the hind legs of mice after intraperitoneal injection. It is filed as in vivo. To be noted: sublethal dose, 50 μg of the conjugate (2.5 mg of toxin/kg) intraperitoneally, mouse. How it is done: When injected intraperitoneally, crotamine causes a quick paralysis, in less than 15 minutes, of the hind legs of mice, which is the typical physiological effect of this toxin.
Crotamine (1 mg) was suspended in 1 ml buffer (100 mM sodium carbonate/bicarbonate, pH 9.3) and conjugated to the fluorescent dye Cy3, a cyanine derivative supplied as a bifunctional form of an NHS-type ester in the Fluorolink Cy3 dye pack kit (Amersham Biosciences). To verify if Cy3-crotamine is biologically active, a sublethal dose, 50 μg of the conjugate (corresponding to 2.5 mg of toxin/kg) was intraperitoneally injected into a mouse. The crotamine linked to Cy3 complex caused the typical paralysis response of the hind legs in less than 15 minutes after injection.

A further data set relates to blastocyts. In words: Internalization of Cy3-conjugated crotamine in blastocysts in vitro. It is filed as cell-based, murine. Conditions: cell cytoplasm, FIG. 1. How it is done:
Embryonic bodies (EBs) were obtained by the hanging drop method, as described above, using culture medium containing crotamine at various concentrations (100 μM to 0.1 μM), changing the medium every two to three days. To analyze the crotamine location in EBs under development, crotamine was substituted with crotamine linked to Cy3 (Cy3-crotamine) during the final 24 hours of incubation. Compact murine morulae (8-16 cells) were obtained from the oviduct and cultivated for 24 hours at 37° C. in 5% CO2, in individual microwells of V-bottom plates (Costar) with […] microwells in M16 medium (supplier: Sigma) and Cy3-crotamine (1-0.1 μM). After 24 hours of culture, normally developed blastocyst numbers were compared within the control and the experimental group.

The test system of data set [1] is cells from the peritoneal liquid and from the murine bone marrow. The experiment in a line: In vivo incorporation of Cy3-crotamine after intraperitoneal injection. Further details: species or system CD-1 strain mice. How it is done: In vitro assay: Semiconffluent cultures of pluripotent and differentiation ES cells (homogeneous cell population), as well as other cell cultures of normal and tumor origin, were kept in small laminar slides placed in 24-well plates containing appropriate culture medium. Cells were incubated for 2-3 minutes to 72 hours in the presence of Cy3-crotamine, under concentrations between 10 μM and 0.01 μM, or as control, just in the presence of the dye agent Cy3 diluted in 1 ml PBS (control). In in vivo assays, 1 ml of 1 μM Cy3-crotamine or the pure control dye agent Cy3 (1 ml) in PBS were intraperitoneally injected into a mouse (line CD-1). After 3 hours, cells from the bone marrow (mixed cell population), spleen and peritoneal liquid (mixed cell population) were isolated. Cells from the peritoneal liquid adhered to the microscope slides for one hour in RPMI medium supplemented with 10% FCS and no antibiotics at 37° C., under humid atmosphere and 5% CO2. In all assays, cells were washed twice with cold solutions of 0.1 M PBS, pH 7.4, fixed with 3.7% formaldehyde in PBS for fifteen minutes and washed twice with PBS. Microscope slides were prepared in the PBS/glycerol (1:1) solution. Alternatively, non-fixed cells were washed twice with PBS and observed in the confocal microscope.
(§1) To analyze the specific binding of Cy3-crotamine to chromatin and centrosome (a pair of small organelles named the centrioles), the same experimental procedure, as described above, was used, the sole difference consisting in the pre-treatment of ES cells and murine embryonic fibroblasts with 1 μM of free crotamine, followed by treatment with the conjugated crotamine, Cy3-crotamine, for 15 minutes more. A similar experiment was conducted in vivo, by injecting in mice both the conjugated and the free crotamine. As a control, 1 μM of Cy3-crotamine was used and incubated for 15 minutes. For the confocal microscopy analysis, cells were prepared as described above. Experiments with animals were carried out according to the international ethical recommendations for the use of animals.

The subject of a further data set is centrosome. In words: Marker for centrosome. In kind it is cell-based. To be noted: cells from the peritoneal liquid of mice and ES cells, FIG. 9. How it is done:
as §1
Embryonic bodies, obtained according to the protocol as described above, after three days, adhered to small glass slides. On the following day, actively proliferating cells were simultaneously labeled with 5-bromo-2′-deoxyuridine (BrDU) and Cy3-crotamine. BrDU-labeled cell detection by the monoclonal antibody anti-BrDU (clone BU-1) was made according to manufacturer's recommendations (Amersham-Pharmacia Biotech). The secondary antibody was conjugated to the fluorescent compound FITC. […] Microscope slides were assembled in a PBS/glycerol solution (1:1) and analysed in a confocal microscope. […]

A further data set deals with B16F10 cells tumor. The experiment in a line: Tumor labeling by cy3-crotamine. It is filed as in vivo, Balb/c mouse. To be noted: 5 μg/animal intraperitoneal, 24 hours after. How it is done: The cells were maintained in Dulbecco's modified Eagle's cell culture medium (DMEM; Invitrogen, Carlsbad, Calif.) supplemented with 15% fetal calf serum (FCS; Invitrogen). The cells were kept at 37° C. with humidity and 5% CO2. After preparing a cell suspension with about 5×10^6 cells/ml of PBS [phosphate buffered solution], approximately 0.2 ml of this suspension was subcutaneously or endovenously (retroorbital injection) injected into each Balb/c mouse, of 4 to 6 weeks-old with body weight between 16 to 20 g. For negative control, the animals were injected with 0.2 ml of PBS. Before setting up the experiments, the animals were kept under 12 hour light-dark cycle, and were allowed to have water and food ad libitum. All animals were caged and handled under ethical conditions according to international rules of animal care, stated by the International Animal Welfare Recommendations, and in accordance with the Guidelines for the Use of Animals in Biochemical Research
About 8 to 12 days after subcutaneous injection of B16F10 cells, the visible ‘melanoma’ tumors were removed and analyzed.
To observe the accumulation of fluorescently labeled crotamine [Cy3-crotamine] into tumors, injected mice were treated by a single intraperitoneal injection of 5 μg of cy3-crotamine/animal. 24 hours after, the animals were sacrificed and the ‘melanoma’ tumors and internal tissues were removed and analyzed [frozen/Tissue-Tek and Paraplast block preparations]. The frozen slices were stained with DAPI and analyzed by confocal microscopy. […]
To observe the accumulation of fluorescently labeled crotamine [Cy3-crotamine] into tumors, injected mice were treated by a single intraperitoneal injection of 5 μg of cy3-crotamine/animal. 24 hours after, the animals were sacrificed and the internal tissues (including those showing metastasis) were removed and analyzed [frozen/Tissue-Tek and Paraplast block preparations]. The frozen slices were stained with DAPI and analyzed by confocal microscopy.

[2] abbreviates: three hours after intraperitoneal injection, CD-1 mice.
[3] abbreviates: subcutaneous injection of B16F10.

KMDCRWRWKCCKK [peptide 2]: in the data set on 3T3 cell line, the “signals from actively proliferating 3T3 cells compared with the original crotamine” value is given as “no distinctive signals”. The “treatment time giving the best result” value with 3T3 cell line (3T3 cells) worked out at 48 h.
As to “Cy3-crotamine: crotamine conjugated to the fluorescent dye Cy3, a cyanine derivative (YKQCHKKGGHCFPKEKICLPPSSDFGKMDCRWRWKCCKKGSG; disulfide (positions not given here); not fully specified (bridges); ends not checked; also: Cy3 dye label, site not given here; UniProt Q9PWF3 23-64, looked up)”, the “time to typical paralysis response of the hind legs after injection” value in the data set with mice is given as “less than 15 minutes”. In addition, in the data set on blastocyts, the “fluorescence in blastocysts (confocal microscopy)” value is “intense fluorescence”. For the same substance, the “fluorescence in cytoplasm of mouse megakaryocyte” value in data set [1] (FIG. 5E-G) is reported as “weak fluorescence”. Moreover, the “fluorescence after pretreatment with non-labeled crotamine” value in data set [1] (cells pretreated with non-labeled crotamine, megakaryocyte, FIG. 5H) was “Strong fluorescence restricted to the cytoplasm”. Besides, in data set [1] (living cells, FIG. 3A-C), the “signal in cytoplasm of living cells of the peritoneal liquid” value is “strong” and the “signal in nucleus of living cells of the peritoneal liquid” value is recorded as “moderate”. Further, in data set [1] (setting [2]), the “signals on cells from the murine bone marrow” value is “strong signals”; the “signals on cytoplasm and nucleus of cells from the peritoneal liquid” value was “strong signals”. Moreover, in the data set with centrosome, the “marking of the centrosome cycle” value is recorded as “functions as a marker for the centrosome cycle”. Further, in the data set with B16F10 cells tumor (endovenous injection of B16F10), the “fluorescent signal inside the cell mass of B16F10 cells tumor” value was “strong fluorescent signal”. In the data set with B16F10 cells tumor (setting [3]), the “fluorescent signal inside the cell mass of B16F10 cells tumor” value is “strong fluorescent signal” and the “localization in tumor cells (overlay with DAPI)” value was “observed in the nucleus of the cells”.
In the case of KQCHKKGGHCFPKEKIC [peptide 1], in the data set with 3T3 cell line, the “signals from actively proliferating 3T3 cells compared with the original crotamine” value is recorded as “no distinctive signals”. For the same substance, the “treatment time giving the best result” value in the data set on 3T3 cell line (3T3 cells) came out at 48 h. In addition, the “green fluorescence corresponding to GFP expression” value with 3T3 cell line (3T3 cells, in comparison with peptide 2, confocal microscopy) is given as “more intense green fluorescence”.

Source of the values: patent US8278265B2, “Methods, kits and compositions comprising crotamine” (Fundacao de Amparo a Pesquisa do Estado de Sao Paulo—FAPESP, priority 2005, dated 2012).
